Literature values as cited in article PMC7867784 (Translational Lung Cancer Research, 2021).

System: RET-rearranged NSCLC
Conditions: cited from earlier work; for response rate and PFS in NSCLC with RET rearrangement: recent clinical trials

SMILES | response rate (RET-rearranged NSCLC, 7/25 cases) | median PFS (RET-rearranged NSCLC) | response rate and PFS in NSCLC with RET rearrangement
COc1cc2nccc(Oc3ccc(NC(=O)C4(C(=O)Nc5ccc(F)cc5)CC4)cc3)c2cc1OC [cabozantinib] | 28% | 5.5 months | –
CO[C@]1(C(=O)N[C@@H](C)c2ccc(-n3cc(F)cn3)nc2)CC[C@H](c2nc(C)cc(Nc3cc(C)[nH]n3)n2)CC1 [pralsetinib] | – | – | high response rate and prolonged PFS
COc1ccc(CN2C3CC2CN(c2ccc(-c4cc(OCC(C)(C)O)cn5ncc(C#N)c45)cn2)C3)cn1 [selpercatinib] | – | – | high response rate and prolonged PFS
